molecular target: T1, estrogen receptor (Homo sapiens, UniProt P03372); assay: Alkaline phosphatase (AP) assay in ECC-1 cells, agonist mode (no E2) and antagonist mode (500 pM E2); assay type: cell-based; details: 3 days, AP activity normalized to 500 pM E2 alone, agonist mode without E2, antagonist mode with 500 pM E2
T1 construct: endogenous in cells; host or cells: ECC-1 cells
T1 sequence (P03372 1-595): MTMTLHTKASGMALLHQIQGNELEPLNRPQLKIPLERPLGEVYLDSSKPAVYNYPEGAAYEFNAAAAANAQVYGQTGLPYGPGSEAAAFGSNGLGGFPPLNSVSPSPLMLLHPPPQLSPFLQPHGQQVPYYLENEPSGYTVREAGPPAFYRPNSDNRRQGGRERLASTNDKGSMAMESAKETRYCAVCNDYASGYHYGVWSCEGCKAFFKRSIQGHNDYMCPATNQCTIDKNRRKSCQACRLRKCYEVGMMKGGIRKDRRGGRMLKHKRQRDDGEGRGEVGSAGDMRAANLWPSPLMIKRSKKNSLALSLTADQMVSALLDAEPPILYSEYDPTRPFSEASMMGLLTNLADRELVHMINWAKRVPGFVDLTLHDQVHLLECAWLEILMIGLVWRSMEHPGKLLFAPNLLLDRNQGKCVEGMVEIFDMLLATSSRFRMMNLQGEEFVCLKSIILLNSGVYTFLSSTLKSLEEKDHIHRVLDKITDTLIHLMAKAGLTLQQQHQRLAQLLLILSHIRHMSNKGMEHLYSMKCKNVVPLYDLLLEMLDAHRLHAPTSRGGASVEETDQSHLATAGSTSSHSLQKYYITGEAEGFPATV
Method: ECC-1 cells were trypsinized and resuspended in hormone-depleted media and plated at a density of 15 k cells per well into a 96-well plate for at least 4 hours. Cells were treated with test compounds in the absence of E2 (for agonist mode) or in the presence of 500 pM E2 (for antagonist mode) for 3 days and plates were subsequently frozen at −80° C. Thawed plates were incubated with a chromogenic substrate of AP, p-nitrophenyl phosphate (Thermo Fisher Scientific), for 40 minutes at 42° C., and absorbances were read at 405 nm. AP activity was normalized to the activity of 500 pM E2 alone.
The compound numbers correspond to the compound numbers of Table 1 and 2. Compounds having an activity designated as “+” provided estrogen receptor agonism having (i) at least 80% increase in the E2-normalized signal in the AP assay (agonist mode) and (ii) no more than 80% reduction in the E2-normalized signal in the AP assay (antagonist mode). Compounds having an activity designated as “++” provided estrogen receptor antagonism having (i) between 10% and 80% increase in the E2-normalized signal in the AP assay (agonist mode) and (ii) between 10% and 80% reduction in the E2-normalized signal in the AP assay (antagonist mode).

Structure (SMILES) | Activity (estrogen receptor modulation, agonism and antagonism)
CCCN1CC(Cc2sc([C@@H]3c4[nH]c5ccccc5c4C[C@@H](C)N3CC(C)(C)F)cc2C)C1 [Example I-8, (1S,3R)-2-(2-fluoro-2-methylpropyl)-3-methyl-1-(4-methyl-5-((1-propylazetidin-3-yl)methyl)thiophen-2-yl)-2,3,4,9-tetrahydro-1H-pyrido[3,4-b]indole] | ++ (estrogen receptor antagonism having (i) between 10% and 80% increase in the E2-normalized signal in the AP assay (agonist mode) and (ii) between 10% and 80% reduction in the E2-normalized signal in the AP assay (antagonist mode))
CCCN1CC(Cc2cnc([C@@H]3c4[nH]c5ccccc5c4C[C@@H](C)N3CC(F)(F)F)s2)C1 [Example I-37, 2-[(1S,3R)-3-methyl-2-(2,2,2-trifluoroethyl)-1,3,4,9-tetrahydropyrido[3,4-b]indol-1-yl]-5-[(1-propylazetidin-3-yl)methyl]thiazole] | ++ (estrogen receptor antagonism having (i) between 10% and 80% increase in the E2-normalized signal in the AP assay (agonist mode) and (ii) between 10% and 80% reduction in the E2-normalized signal in the AP assay (antagonist mode))
CCCN1CC[C@@H](Cc2ncc([C@@H]3c4[nH]c5ccccc5c4C[C@@H](C)N3CC(C)(C)F)s2)C1 [Example I-47] | + (estrogen receptor agonism having (i) at least 80% increase in the E2-normalized signal in the AP assay (agonist mode) and (ii) no more than 80% reduction in the E2-normalized signal in the AP assay (antagonist mode))
CCCN1CC(Cc2sc([C@@H]3c4[nH]c5ccccc5c4C[C@@H](C)N3CC(C)(C)F)cc2F)C1 [Example I-10, (1S,3R)-2-(2-fluoro-2-methylpropyl)-1-(4-fluoro-5-((1-propylazetidin-3-yl)methyl)thiophen-2-yl)-3-methyl-2,3,4,9-tetrahydro-1H-pyrido[3,4-b]indole] | ++ (estrogen receptor antagonism having (i) between 10% and 80% increase in the E2-normalized signal in the AP assay (agonist mode) and (ii) between 10% and 80% reduction in the E2-normalized signal in the AP assay (antagonist mode))
C[C@@H]1Cc2c([nH]c3ccccc23)[C@@H](c2sc(CC3CN(CCCF)C3)cc2F)N1CC(F)(F)CO [Example I-55, 2,2-difluoro-3-[(1S,3R)-1-[3-fluoro-5-[[1-(3-fluoropropyl)azetidin-3-yl]methyl]-2-thienyl]-3-methyl-1,3,4,9-tetrahydropyrido[3,4-b]indol-2-yl]propan-1-ol] | +++ (estrogen receptor antagonism (i) with pIC50 greater than 7.5 and at least a 10% reduction in the E2-normalized signal in the AP assay (antagonist mode); and no more than 10% increase in E2-normalized signal in the AP assay (agonist mode))
C[C@@H]1Cc2c([nH]c3ccccc23)[C@@H](c2ccc(CC3CN(CCCF)C3)s2)N1CC(F)(F)CO [Example I-16, 2,2-difluoro-3-[(1S,3R)-1-(5-{[1-(3-fluoropropyl)azetidin-3-yl]methyl}thiophen-2-yl)-3-methyl-1H,2H,3H,4H,9H-pyrido[3,4-b]indol-2-yl]propan-1-ol] | +++ (estrogen receptor antagonism (i) with pIC50 greater than 7.5 and at least a 10% reduction in the E2-normalized signal in the AP assay (antagonist mode); and no more than 10% increase in E2-normalized signal in the AP assay (agonist mode))
C[C@@H]1Cc2c([nH]c3ccccc23)[C@@H](c2cnc(N[C@@H]3CCCN(CCCF)C3)s2)N1CC(F)(F)CO [Example I-67, 2,2-difluoro-3-((1S,3R)-1-(2-(((R)-1-(3-fluoropropyl)piperidin-3-yl)amino)thiazol-5-yl)-3-methyl-1,3,4,9-tetrahydro-2H-pyrido[3,4-b]indol-2-yl)propan-1-ol] | + (estrogen receptor agonism having (i) at least 80% increase in the E2-normalized signal in the AP assay (agonist mode) and (ii) no more than 80% reduction in the E2-normalized signal in the AP assay (antagonist mode))
C[C@@H]1Cc2c([nH]c3ccccc23)[C@@H](c2ccc(SC3CN(CCCF)C3)s2)N1CC(C)(C)F [Example I-61, 3-({5-[(1S,3R)-2-(2-fluoro-2-methylpropyl)-3-methyl-1H,2H,3H,4H,9H-pyrido[3,4-b]indol-1-yl]thiophen-2-yl}sulfanyl)-1-(3-fluoropropyl)azetidine] | ++ (estrogen receptor antagonism having (i) between 10% and 80% increase in the E2-normalized signal in the AP assay (agonist mode) and (ii) between 10% and 80% reduction in the E2-normalized signal in the AP assay (antagonist mode))
C[C@@H]1Cc2c([nH]c3ccccc23)[C@@H](c2ccc(CC3CN(CCC#N)C3)s2)N1CC(F)(F)CO [Example I-57] | ++ (estrogen receptor antagonism having (i) between 10% and 80% increase in the E2-normalized signal in the AP assay (agonist mode) and (ii) between 10% and 80% reduction in the E2-normalized signal in the AP assay (antagonist mode))
C[C@@H]1Cc2c([nH]c3ccccc23)[C@@H](c2cnc(N[C@H]3CN(CCCF)C[C@@H]3F)s2)N1CC(F)(F)CO [Example I-65, 2,2-difluoro-3-((1S,3R)-1-(2-(((3S,4S)-4-fluoro-1-(3-fluoropropyl)pyrrolidin-3-yl)amino)thiazol-5-yl)-3-methyl-1,3,4,9-tetrahydro-2H-pyrido[3,4-b]indol-2-yl)propan-1-ol] | + (estrogen receptor agonism having (i) at least 80% increase in the E2-normalized signal in the AP assay (agonist mode) and (ii) no more than 80% reduction in the E2-normalized signal in the AP assay (antagonist mode))
C[C@@H]1Cc2c([nH]c3ccccc23)[C@@H](c2nnc(CC3CN(CCCF)C3)s2)N1CC(C)(C)F [Example I-52, 2-((1S,3R)-2-(2-fluoro-2-methylpropyl)-3-methyl-2,3,4,9-tetrahydro-1H-pyrido[3,4-b]indol-1-yl)-5-((1-(3-fluoropropyl)azetidin-3-yl)methyl)-1,3,4-thiadiazole] | ++ (estrogen receptor antagonism having (i) between 10% and 80% increase in the E2-normalized signal in the AP assay (agonist mode) and (ii) between 10% and 80% reduction in the E2-normalized signal in the AP assay (antagonist mode))
C[C@@H]1Cc2c([nH]c3ccccc23)[C@@H](c2cnc(N[C@H]3CCN(CCCF)C3)s2)N1CC(F)(F)CO [Example I-73, 2,2-difluoro-3-[(1S,3R)-1-[2-[[(3S)-1-(3-fluoropropyl)pyrrolidin-3-yl]amino]thiazol-5-yl]-3-methyl-1,3,4,9-tetrahydropyrido[3,4-b]indol-2-yl]propan-1-ol] | ++ (estrogen receptor antagonism having (i) between 10% and 80% increase in the E2-normalized signal in the AP assay (agonist mode) and (ii) between 10% and 80% reduction in the E2-normalized signal in the AP assay (antagonist mode))
C[C@@H]1Cc2c([nH]c3ccccc23)[C@@H](c2ccc(CC3CN(CCCF)C3)s2)N1CC(C)(F)F [Example I-22, 3-({5-[(1S,3R)-2-(2,2-difluoropropyl)-3-methyl-1H,2H,3H,4H,9H-pyrido[3,4-b]indol-1-yl]thiophen-2-yl}methyl)-1-(3-fluoropropyl)azetidine] | ++ (estrogen receptor antagonism having (i) between 10% and 80% increase in the E2-normalized signal in the AP assay (agonist mode) and (ii) between 10% and 80% reduction in the E2-normalized signal in the AP assay (antagonist mode))
C[C@@H]1Cc2c([nH]c3ccccc23)[C@@H](c2ccc(CCCN3CC[C@@H](CF)C3)s2)N1CC(C)(C)F [Example I-25, (1S,3R)-2-(2-fluoro-2-methylpropyl)-1-(5-(3-((R)-3-(fluoromethyl)pyrrolidin-1-yl)propyl)thiophen-2-yl)-3-methyl-2,3,4,9-tetrahydro-1H-pyrido[3,4-b]indole] | ++ (estrogen receptor antagonism having (i) between 10% and 80% increase in the E2-normalized signal in the AP assay (agonist mode) and (ii) between 10% and 80% reduction in the E2-normalized signal in the AP assay (antagonist mode))
C[C@@H]1Cc2c([nH]c3ccccc23)[C@@H](c2ccc(CC3CN(CCCF)C3)s2)N1CC(F)F [Example I-17, 3-({5-[(1S,3R)-2-(2,2-difluoroethyl)-3-methyl-1H,2H,3H,4H,9H-pyrido[3,4-b]indol-1-yl]thiophen-2-yl}methyl)-1-(3-fluoropropyl)azetidine] | +++ (estrogen receptor antagonism (i) with pIC50 greater than 7.5 and at least a 10% reduction in the E2-normalized signal in the AP assay (antagonist mode); and no more than 10% increase in E2-normalized signal in the AP assay (agonist mode))

From patent US20260055103A1, “2,3,4,9-TETRAHYDRO-1H-PYRIDO[3,4-B]INDOLE DERIVATIVES AS ESTROGEN RECEPTOR MODULATORS FOR THE TREATMENT OF CANCER” (Olema Pharmaceuticals, Inc., priority 2022, published 2026)
